Measured values as given in patent publication US11059784B2, “Oxime ether compounds” (BRISTOL-MYERS SQUIBB COMPANY, priority 2017, dated 2021).

Assays:
blood lymphocytes [1] = experiment: Blood Lymphocyte Reduction (BLR) assay in rodent; format: in vivo, Lewis rats; details: 24 hr post-dose; for Percent reduction vs. vehicle control: Table C study
[2] = Pulmonary Toxicity Assay (bronchoalveolar lavage protein); format: in vivo, rats; details: 24 hr post-dose
Method: The analysis of protein levels in bronchoalveolar lavage (BAL) fluid obtained from an animal were used to gauge pulmonary side effects. Increased levels of protein in BAL fluid were indicative of undesired edematous pulmonary effects, such as pulmonary edema.
Example 3 was administered orally to rats at doses of 0.3, 1.0, 10, 30 mg/kg and 2-amino-2-[2-(4-octylphenyl)ethyl]-1,3-propanediol, hydrochloride (CAS: 162359-56-0) was administered at 3.0 mg/kg as a solution in the vehicle. At 24 hours post dose, the rats were then euthanized by barbiturate overdose. The trachea was exposed by incision of the overlying skin and then cannulated. The lungs were lavaged with 4 mL of saline. The recovered lavage fluid was assayed for total protein content. The concentration of the BAL protein in the recovered BAL fluid was determined on an Advia 1800 Chemistry Analyzer (Siemens Healthcare Diagnostics). The results represent the average results of all animals within each treatment group (n=2-4).

S1P3 = S1P3 (Homo sapiens (Human), UniProt Q99500); experiment: Receptor [35S] GTPγS Binding Assay, S1P3; format: biochemical; details: membranes from EDG3-Gal5-bla HEK293T cells
S1P3, sequence (Q99500 whole entry): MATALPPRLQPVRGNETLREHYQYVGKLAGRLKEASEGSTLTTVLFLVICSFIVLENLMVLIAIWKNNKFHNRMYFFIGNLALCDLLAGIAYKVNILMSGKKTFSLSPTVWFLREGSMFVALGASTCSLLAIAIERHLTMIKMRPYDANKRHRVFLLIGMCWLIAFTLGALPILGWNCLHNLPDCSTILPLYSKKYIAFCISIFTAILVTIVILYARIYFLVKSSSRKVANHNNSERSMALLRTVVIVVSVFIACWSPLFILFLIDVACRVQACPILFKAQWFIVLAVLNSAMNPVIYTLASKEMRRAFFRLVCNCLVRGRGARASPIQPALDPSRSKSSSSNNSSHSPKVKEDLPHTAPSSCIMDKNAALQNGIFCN
Method: (§1) Receptor [^35S] GTPγS Binding Assays:
(§2) Compounds were loaded in a 384 Falcon v-bottom plate (0.5 μl/well in an 11 point, 3-fold dilution). Membranes prepared from S1P1/CHO cells or EDG3-Gal5-bla HEK293T cells (EDG3 equivalent S1P3) were added to the compound plate ([…], final protein 3 μg/well) with MULTIDROP®. [^35S]GTP (1250 Ci/mmol, Perkin Elmer) was diluted in assay buffer: 20 mM HEPES, pH7.5, 10 mM MgCl2, 150 mM NaCl, 1 mM EGTA (ethylene glycol tetraacetic acid), 1 mM DTT (Dithiothreitol), 10 μM GDP, 0.1% fatty acid free BSA, and 10 μg/ml Saponin to 0.4 nM. 40 μl of the [35S] GTP solution was added to the compound plate with a final concentration of 0.2 nM. The reaction was kept at room temperature for 45 min. At the end of incubation, all the mixtures in the compound plate were transferred to Millipore 384-well FB filter plates via the VELOCITY11 ® Vprep liquid handler. The filter plate was washed with water 4 times by using the manifold Embla plate washer and dried at 60° C. for 45 min. MicroScint 20 scintillation fluid (30 μl) was added to each well for counting on the Packard TOPCOUNT®. EC50 is defined as the agonist concentration that corresponds to 50% of the Ymax (maximal response) obtained for each individual compound tested.

S1P1 [3] = biological target: T1, S1P1 (Homo sapiens (Human), UniProt P21453); experiment: Receptor [35S] GTPγS Binding Assay, S1P1; format: biochemical; details: membranes from S1P1/CHO cells
T1 sequence (P21453 whole entry): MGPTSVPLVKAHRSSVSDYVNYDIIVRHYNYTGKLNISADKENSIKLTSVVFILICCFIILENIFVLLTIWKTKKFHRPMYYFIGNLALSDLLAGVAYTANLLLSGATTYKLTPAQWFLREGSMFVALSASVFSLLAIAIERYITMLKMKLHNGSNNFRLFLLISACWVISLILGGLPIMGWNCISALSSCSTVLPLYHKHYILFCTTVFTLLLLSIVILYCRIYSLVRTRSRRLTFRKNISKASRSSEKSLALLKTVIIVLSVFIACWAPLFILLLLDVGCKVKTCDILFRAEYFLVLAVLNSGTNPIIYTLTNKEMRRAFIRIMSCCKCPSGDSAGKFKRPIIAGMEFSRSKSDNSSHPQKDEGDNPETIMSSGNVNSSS
Method: as §1, §2
A smaller value for GTPγS S1P1 EC50 value indicated greater activity for the compound in the GTPγS S1P1 binding assay. Thus the compounds of the present invention may be used in treating, preventing, or curing various S1P1 receptor-related conditions. The compounds have potential use in treating, preventing, or curing autoimmune and inflammatory diseases such as multiple sclerosis, rheumatoid arthritis, inflammatory bowel disease, lupus, psoriasis, or minimizing or reducing rejection of transplanted organs.

S1P1 [4] = biological target: T1, S1P1; experiment: S1P1 Binding Assay (33P-S1P ligand competition, CHO membranes); details: membranes from CHO cells expressing human S1P1
Method: Membranes were prepared from CHO cells expressing human S1P1. Cells pellets (1×10^9 cells/pellet) were suspended in buffer containing 20 mM HEPES (4-(2-hydroxyethyl)-1-piperazineethanesulfonic acid), pH 7.5, 50 mM NaCl, 2 mM EDTA (ethylenediamine tetraacetic acid) and Protease Inhibitor cocktail (Roche), and disrupted on ice using the Polytron homogenizer. The homogenate was centrifuged at 20,000 rpm (48,000 g) and the supernatant was discarded. The membrane pellets were resuspended in buffer containing 50 mM HEPES, pH 7.5, 100 mM NaCl, 1 mM MgCl2, 2 mM EDTA and stored in aliquots at −80° C. after protein concentration determination.
Membranes (2 μg/well) and 0.03 nM final concentration of ^33P-S1P ligand (1 mCi/ml, Perkin Elmer or American Radiolabeled Chemicals) diluted in assay buffer (50 mM HEPES, pH7.4, 5 mM MgCl2, 1 mM CaCl2), 0.5% fatty acid free BSA (bovine serum albumin), 1 mM NaF) were added to the compound plates (384 Falcon v-bottom plate (0.5 μl/well in a 11 point, 3-fold dilution). Binding was performed for 45 minutes at room temperature, terminated by collecting the membranes onto 384-well Millipore FB filter plates, and radioactivity was measured by TOPCOUNT®. The competition data of the test compounds over a range of concentrations was plotted as percentage inhibition of radioligand specific binding. The IC50 is defined as the concentration of competing ligand needed to reduce specific binding by 50%.

blood lymphocytes [5] = experiment: Blood Lymphocyte Reduction (BLR) assay in rodent; format: in vivo, Lewis rats; details: 24 hr post-dose, Table B study; for Percent reduction vs. control: hydrochloride
Method: Blood Lymphocyte Reduction (BLR) assay in rodent:
Lewis rats were dosed orally with vehicle alone (polyethylene glycol 300, “PEG300”) or with the comparative compound 2-amino-2-[2-(4-octylphenyl)ethyl]-1,3-propanediol, hydrochloride (“FTY” CAS: […]) as a solution in the vehicle at doses of 0.1 mg/kg, 0.5 mg/kg and 3.0 mg/kg. The results are provided in Table Band the level of lymphocyte reduction at 24 hours post-dose was maximal at 3.0 mg/kg. The percent reduction in lymphocytes is dose-related but the relationship is not linear, with non-proportional increases in dose being required to elicit sequentially greater reductions in lymphocyte counts.

Row | SMILES | EC50 (S1P3) [nM] | EC50 (S1P1 [3]) [nM] | IC50 (S1P1 [4]) [nM] | other results
1 | CC(=NOCCc1ccccc1)c1ccc(C2CCC(N)(CO)C2)cc1.Cl (centres unmarked) [Example 3, 1-(4-(3-amino-3-(hydroxymethyl)cyclopentyl)phenyl)ethanone O-phenethyl Oxime] |  |  |  | Percent reduction vs. vehicle control (blood lymphocytes [1]; 0.3 mg/kg): 29%; Percent reduction vs. vehicle control (blood lymphocytes [1]; 1 mg/kg): 62%; level of lymphocyte reduction (in words) (blood lymphocytes [1]; 10 mg/kg and 30 mg/kg): maximal level of lymphocyte reduction comparable to the reduction shown by FTY; Percent reduction vs. vehicle control (blood lymphocytes [1]; 10 mg/kg): 85%; Percent reduction vs. vehicle control (blood lymphocytes [1]; 30 mg/kg): 85%; Relative BAL protein vs. control ([2]; 0.3 mg/kg oral): 0.8; Relative BAL protein vs. control ([2]; 1 mg/kg oral): 0.8; Relative BAL protein vs. control ([2]; 10 mg/kg oral): 1.2; Relative BAL protein vs. control ([2]; 30 mg/kg oral): 1.3
2 | CC(=NOCc1ccc(C(F)(F)F)cc1)c1ccc([C@@H]2CC[C@](N)(COP(=O)(O)O)C2)cc1 [Example 45, ((1R,3R)-1-amino-3-(4-(1-(((4-(trifluoromethyl)benzyl)oxy)imino)ethyl)phenyl)cyclopentyl)methyl dihydrogen phosphate] | > 60000 | 5.6 | 2.7 | 
3 | CC(=NOCCOc1ccccc1)c1ccc([C@@H]2CC[C@](N)(COP(=O)(O)O)C2)cc1 [Example 46, ((1R,3R)-1-amino-3-(4-(1-((2-phenoxyethoxy)imino)ethyl)phenyl)cyclopentyl) methyl dihydrogen phosphate] | > 60000 | 11.2 | 5.2 | 
4 | COc1cccc(CO/N=C(\C)c2ccc([C@@H]3CC[C@](N)(COP(=O)(O)O)C3)cc2)c1 [Example 50, ((1R,3R)-1-amino-3-(4-((E)-1-(((3-methoxybenzyl)oxy)imino)ethyl)phenyl)cyclopentyl) methyl dihydrogen phosphate] | > 60000 | 630 | 563 | 
5 | CC(=NOCCCc1ccccc1)c1ccc([C@H]2CC[C@](N)(COP(=O)(O)O)C2)cc1 [Example 52] | > 30000 | 1.1 | 31.9 | 
6 | CCCCCCCCc1ccc(CCC(N)(CO)CO)cc1.Cl [FTY, 2-amino-2-[2-(4-octylphenyl)ethyl]-1,3-propanediol, hydrochloride] |  |  |  | Rat Blood Lymphocyte Reduction Assay, Compound Mean (blood lymphocytes [5]; 0.1 mg/kg oral): 2.78; Percent reduction vs. control (blood lymphocytes [5]; 0.1 mg/kg oral): 69%; Percent reduction vs. control (blood lymphocytes [5]; 0.1 mg/kg oral, listed as 2-amino-2-[2-(4-octylphenl)pethyl]-1,3-propanediol): 69%; Rat Blood Lymphocyte Reduction Assay, Compound Mean (blood lymphocytes [5]; 0.5 mg/kg oral): 1.64; Percent reduction vs. control (blood lymphocytes [5]; 0.5 mg/kg oral): 82%; Percent reduction vs. control (blood lymphocytes [5]; 0.5 mg/kg oral, listed as 2-amino-2-[2-(4-octylphenl)pethyl]-1,3-propanediol): 82%; Rat Blood Lymphocyte Reduction Assay, Compound Mean (blood lymphocytes [5]; 3.0 mg/kg oral): 1.02; Percent reduction vs. control (blood lymphocytes [5]; 3.0 mg/kg oral): 89%; Percent reduction vs. control (blood lymphocytes [5]; 3.0 mg/kg oral, listed as 2-amino-2-[2-(4-octylphenl)pethyl]-1,3-propanediol): 89%; Percent reduction vs. vehicle control (blood lymphocytes [1]; 3 mg/kg): 87%; Relative BAL protein vs. control ([2]; 3 mg/kg oral): 1.8

Second part, led by results:

Row | EC50 (S1P3) [nM] | EC50 (S1P1 [3]) [nM] | IC50 (S1P1 [4]) [nM] | SMILES | other results
7 | > 60000 | 324 | 1870 | C/C(=N\OCCCc1ccccc1)c1ccc(C(=O)N2CCC(N)(COP(=O)(O)O)CC2)cc1 [Example 57, (4-amino-1-(4-(1-((3-phenylpropoxy)imino)ethyl)benzoyl)piperidin-4-yl)methyl dihydrogen phosphate] | 
8 | > 3120 | 60.8 | 10.7 | C/C(=N\OCc1ccc(C2CCCCC2)c(C(F)(F)F)c1)c1ccc(C(=O)N2CCC(N)(COP(=O)(O)O)CC2)cc1 [Example 58, (E)-(4-amino-1-(4-(1-(((4-cyclohexyl-3-(trifluoromethyl)benzyl)oxy)imino)ethyl)benzoyl)piperidin-4-yl)methyl dihydrogen phosphate] | 
9 | > 6250 | 626 | 1990 | NC1(COP(=O)(O)O)CCN(C(=O)c2ccc(/C(=N/OCCCc3ccccc3)C(F)(F)F)cc2)C1 (centres unmarked) [Example 65, (Z)-(3-amino-1-(4-(2,2,2-trifluoro-1-((3-phenylpropoxy)imino)ethyl)benzoyl)pyrrolidin-3-yl)methyl dihydrogen phosphate] | 
10 | > 18000 | 406 | 918 | C/C(=N\OCc1ccc(C2CCCCC2)c(C(F)(F)F)c1)c1ccc(S(=O)(=O)N2CCC(N)(COP(=O)(O)O)CC2)cc1 [Example 70, (E)-(4-amino-1-((4-(1-(((4-cyclohexyl-3-(trifluoromethyl)benzyl)oxy)imino)ethyl)phenyl)sulfonyl)piperidin-4-yl) methyl dihydrogen phosphate] | 
11 | > 18000 | 242 | 219 | C/C(=N\OCCCc1ccccc1)c1ccc(S(=O)(=O)N2CCC(N)(COP(=O)(O)O)CC2)cc1 [Example 71, (E)-(4-amino-1-((4-(1-((3-phenylpropoxy)imino)ethyl)phenyl)sulfonyl)piperidin-4-yl)methyl dihydrogen phosphate] | 
12 | > 30000 | 91.5 | 61.6 | C/C(=N\OCCc1ccccc1)c1ccc([C@@H]2CC[C@](N)(COP(=O)(O)O)C2)cc1 [Example 72, ((1R,3R)-1-amino-3-(4-((E)-1-(phenethoxyimino)ethyl)phenyl)cyclopentyl)methyl dihydrogen phosphate] | 
